# Where two headings read alike, the source gives them in different places.
# Tests used:
# Format in all cases: cell-based
# [1] = molecular target: T1, human TLR8 (Homo sapiens, UniProt Q9NR97); experiment: TLR8 inhibition reporter assay (HEK-Blue cells, secreted embryonic alkaline phosphatase reporter); settings: HEK-Blue cells overexpressing human TLR8, stimulated with R848 15.9 μM; read-out: TLR 8 IC50
# T1 construct: host or cells: HEK-Blue cells (HEK293-derived reporter line)
# T1 sequence (Q9NR97 27-1041): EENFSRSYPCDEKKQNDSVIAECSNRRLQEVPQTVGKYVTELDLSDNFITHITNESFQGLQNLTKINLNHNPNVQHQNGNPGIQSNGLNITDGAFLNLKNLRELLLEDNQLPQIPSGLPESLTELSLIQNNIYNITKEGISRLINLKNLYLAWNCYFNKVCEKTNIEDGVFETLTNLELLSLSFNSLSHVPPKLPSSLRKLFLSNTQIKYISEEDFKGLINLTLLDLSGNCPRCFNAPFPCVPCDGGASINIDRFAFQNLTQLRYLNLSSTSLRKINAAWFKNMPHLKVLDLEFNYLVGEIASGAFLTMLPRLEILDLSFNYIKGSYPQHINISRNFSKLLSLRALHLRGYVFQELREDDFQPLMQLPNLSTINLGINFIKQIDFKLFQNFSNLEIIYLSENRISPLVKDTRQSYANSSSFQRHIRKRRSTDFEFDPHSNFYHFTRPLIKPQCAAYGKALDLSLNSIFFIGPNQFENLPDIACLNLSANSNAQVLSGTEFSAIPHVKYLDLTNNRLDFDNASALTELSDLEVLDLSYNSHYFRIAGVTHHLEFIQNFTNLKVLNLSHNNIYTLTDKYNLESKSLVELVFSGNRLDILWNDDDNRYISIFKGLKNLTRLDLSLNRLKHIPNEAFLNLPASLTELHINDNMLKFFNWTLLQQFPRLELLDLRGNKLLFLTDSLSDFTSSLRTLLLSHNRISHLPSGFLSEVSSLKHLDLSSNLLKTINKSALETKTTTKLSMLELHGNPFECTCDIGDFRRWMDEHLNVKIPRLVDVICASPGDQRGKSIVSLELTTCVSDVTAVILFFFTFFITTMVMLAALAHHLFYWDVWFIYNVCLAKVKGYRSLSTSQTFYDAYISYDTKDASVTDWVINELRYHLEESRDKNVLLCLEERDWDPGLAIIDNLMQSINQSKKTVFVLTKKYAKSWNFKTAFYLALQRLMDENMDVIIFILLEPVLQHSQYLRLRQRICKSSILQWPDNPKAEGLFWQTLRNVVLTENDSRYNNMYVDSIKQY
# Method in brief: (§1)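 HEK-Blue cells expressing human TLR7, TLR8 or TLR9 with an NF-κB/AP-1-driven SEAP reporter were pretreated with compound (0.05 nM–50 μM final) for 30 min at room temperature. Agonists were gardiquimod 7.5 μM for TLR7, R848 15.9 μM for TLR8 and ODN2006 5 nM for TLR9. SEAP was read after 22 h at 37 °C, and inhibition was calculated relative to agonist-plus-DMSO and known-inhibitor controls.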
# [2] = molecular target: T2, human TLR9 (Homo sapiens, UniProt Q9NR96); experiment: TLR9 inhibition reporter assay (HEK-Blue cells, secreted embryonic alkaline phosphatase reporter)
# T2 construct: host or cells: HEK-Blue cells (HEK293-derived reporter line)
# T2 sequence (Q9NR96 26-1032): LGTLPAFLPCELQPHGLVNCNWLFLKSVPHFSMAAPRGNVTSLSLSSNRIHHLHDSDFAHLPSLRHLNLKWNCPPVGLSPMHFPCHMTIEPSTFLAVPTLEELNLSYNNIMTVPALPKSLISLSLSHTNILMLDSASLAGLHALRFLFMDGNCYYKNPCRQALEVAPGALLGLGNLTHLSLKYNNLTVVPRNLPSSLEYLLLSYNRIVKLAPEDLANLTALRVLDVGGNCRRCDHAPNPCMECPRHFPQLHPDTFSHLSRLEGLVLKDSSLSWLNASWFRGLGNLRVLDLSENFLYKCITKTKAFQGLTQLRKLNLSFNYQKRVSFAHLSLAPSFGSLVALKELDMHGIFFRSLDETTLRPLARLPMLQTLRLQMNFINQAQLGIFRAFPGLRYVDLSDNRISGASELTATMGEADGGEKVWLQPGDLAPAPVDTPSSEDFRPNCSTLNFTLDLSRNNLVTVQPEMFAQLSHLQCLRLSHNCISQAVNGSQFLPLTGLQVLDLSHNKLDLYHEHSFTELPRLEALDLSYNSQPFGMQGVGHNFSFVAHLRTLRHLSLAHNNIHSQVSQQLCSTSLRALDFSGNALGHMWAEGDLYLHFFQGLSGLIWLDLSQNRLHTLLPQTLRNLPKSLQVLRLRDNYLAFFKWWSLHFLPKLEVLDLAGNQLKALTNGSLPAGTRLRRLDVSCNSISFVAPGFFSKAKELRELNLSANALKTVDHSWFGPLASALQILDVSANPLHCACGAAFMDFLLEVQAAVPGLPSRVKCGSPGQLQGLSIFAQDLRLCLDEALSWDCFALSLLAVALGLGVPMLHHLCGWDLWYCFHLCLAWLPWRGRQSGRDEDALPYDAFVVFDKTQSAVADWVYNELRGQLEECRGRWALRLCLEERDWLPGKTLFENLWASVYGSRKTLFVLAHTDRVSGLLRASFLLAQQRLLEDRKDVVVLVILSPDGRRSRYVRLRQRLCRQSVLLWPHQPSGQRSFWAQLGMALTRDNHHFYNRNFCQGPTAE
# Method in brief: as §1
# [3] = molecular target: T3, human TLR7 (Homo sapiens, UniProt Q9NYK1); experiment: TLR7 inhibition reporter assay (HEK-Blue cells, secreted embryonic alkaline phosphatase reporter); settings: HEK-Blue cells overexpressing human TLR7, stimulated with gardiquimod 7.5 μM; read-out: TLR 7 IC50
# T3 construct: host or cells: HEK-Blue cells (HEK293-derived reporter line)
# T3 sequence (Q9NYK1 27-1049): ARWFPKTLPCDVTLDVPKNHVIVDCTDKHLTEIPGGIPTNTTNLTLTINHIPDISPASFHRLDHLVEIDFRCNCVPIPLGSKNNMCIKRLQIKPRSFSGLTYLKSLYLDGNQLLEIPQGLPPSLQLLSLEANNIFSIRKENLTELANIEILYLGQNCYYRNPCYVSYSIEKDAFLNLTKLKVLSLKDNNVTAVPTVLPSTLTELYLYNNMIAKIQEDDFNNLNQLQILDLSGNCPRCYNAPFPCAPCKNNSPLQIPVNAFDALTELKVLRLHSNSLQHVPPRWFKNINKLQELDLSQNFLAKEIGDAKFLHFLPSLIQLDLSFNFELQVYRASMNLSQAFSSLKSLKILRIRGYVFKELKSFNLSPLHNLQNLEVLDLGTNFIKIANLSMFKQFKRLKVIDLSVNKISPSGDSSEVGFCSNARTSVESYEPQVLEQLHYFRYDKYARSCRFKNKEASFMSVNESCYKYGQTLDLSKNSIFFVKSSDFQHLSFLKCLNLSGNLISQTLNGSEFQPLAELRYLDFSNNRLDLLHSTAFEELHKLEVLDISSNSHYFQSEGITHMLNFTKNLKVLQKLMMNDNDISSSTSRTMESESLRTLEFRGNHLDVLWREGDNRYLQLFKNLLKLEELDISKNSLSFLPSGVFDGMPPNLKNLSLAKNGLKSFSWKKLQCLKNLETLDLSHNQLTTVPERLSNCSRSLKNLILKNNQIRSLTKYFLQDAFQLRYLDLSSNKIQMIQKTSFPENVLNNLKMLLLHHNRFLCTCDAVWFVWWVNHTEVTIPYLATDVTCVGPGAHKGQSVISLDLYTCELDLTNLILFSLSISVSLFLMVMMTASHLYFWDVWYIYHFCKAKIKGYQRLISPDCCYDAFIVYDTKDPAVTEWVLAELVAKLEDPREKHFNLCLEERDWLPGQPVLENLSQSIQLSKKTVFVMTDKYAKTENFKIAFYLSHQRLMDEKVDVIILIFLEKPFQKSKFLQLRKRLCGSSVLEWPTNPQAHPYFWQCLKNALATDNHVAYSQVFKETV
# Method in brief: as §1
# [4] = HEK-Blue cells overexpressing human TLR9, stimulated with ODN2006 5 nM, 22 hour incubation, reporter readout
# [5] = HEK-Blue cells overexpressing human TLR9, stimulated with ODN2006 5 nM, read-out: TLR 9 IC50
Structure (SMILES),IC50 [1] [µM],"IC50 [2, 4] [nM]","IC50 [2, 5] [nM]",IC50 [3] [µM],IC50 [2] [nM]
"CC(C)N1C2CCC1CC(N1CCC(c3cc(F)c4nc(-c5ccc(S(C)(=O)=O)cc5)n(C)c4c3)CC1)C2 (single isomer, unassigned) [Example 107, 4-fluoro-6-(1-(8-isopropyl-8-azabicyclo[3.2.1]octan-3-yl)piperidin-4-yl)-1-methyl-2-(4-(methylsulfonyl)phenyl)-1H-benzo[d]imidazole]",> 50,270,269,5.8,
"Cn1c(-c2ccc(S(C)(=O)=O)cc2)nc2c(F)cc(C3CCN(C4CCCN(C5COC5)CC4)CC3)cc21 (single isomer, unassigned) [Example 108, 4-fluoro-1-methyl-2-(4-(methylsulfonyl)phenyl)-6-(1-(1-(oxetan-3-yl)azepan-4-yl)piperidin-4-yl)-1H-benzo[d]imidazole]",> 50,260,25.8,24,
"Cn1c(-c2ccc(S(C)(=O)=O)cc2)nc2c(F)cc(C3CCN(C4CCCN(C5COC5)CC4)CC3)cc21 (single isomer, unassigned) [Example 109, 4-fluoro-1-methyl-2-(4-(methylsulfonyl)phenyl)-6-(1-(1-(oxetan-3-yl)azepan-4-yl)piperidin-4-yl)-1H-benzo[d]imidazole]",> 50,90,,17.2,
"Cc1cc(C2CCN(C3CCCN(C4CCC4)CC3)CC2)cc2c1nc(-c1ccc(S(C)(=O)=O)cc1)n2C (single isomer, unassigned) [Example 110, 6-(1-(1-cyclobutylazepan-4-yl)piperidin-4-yl)-1,4-dimethyl-2-(4-(methylsulfonyl)phenyl)-1H-benzo[d]imidazole]",> 50,83,,1.2,
"Cc1cc(C2CCN(C3CCCN(C4CCC4)CC3)CC2)cc2c1nc(-c1ccc(S(C)(=O)=O)cc1)n2C (single isomer, unassigned) [Example 111, 6-(1-(1-cyclobutylazepan-4-yl)piperidin-4-yl)-1,4-dimethyl-2-(4-(methylsulfonyl)phenyl)-1H-benzo[d]imidazole]",> 50,24,,1.5,
"CC(C)N1CCCC(N2CCC(c3ccc4nc(-c5ccc(S(C)(=O)=O)cc5)n(C)c4c3F)CC2)CC1 (single isomer, unassigned) [Example 113, 7-fluoro-6-(1-(1-isopropylazepan-4-yl)piperidin-4-yl)-1-methyl-2-(4-(methylsulfonyl)phenyl)-1H-benzo[d]imidazole]",> 50,32,,> 50,
"CC(C)N1CCCC(N2CCC(c3ccc4nc(-c5ccc(S(C)(=O)=O)cc5)n(C)c4c3F)CC2)CC1 (single isomer, unassigned) [Example 114, 7-fluoro-6-(1-(1-isopropylazepan-4-yl)piperidin-4-yl)-1-methyl-2-(4-(methylsulfonyl)phenyl)-1H-benzo[d]imidazole]",16.7,13,,> 50,
"CC(C)N1C2CCC1CC(N1CCC(c3cc(F)c4nc(-c5ccc(S(C)(=O)=O)cc5)n(C5CC5)c4c3)CC1)C2 (single isomer, unassigned) [Example 116, 1-cyclopropyl-4-fluoro-6-(1-(8-isopropyl-8-azabicyclo[3.2.1]octan-3-yl)piperidin-4-yl)-2-(4-(methylsulfonyl)phenyl)-1H-benzo[d]imidazole]",> 50,51,,3.5,
"CC(C)N1C2CCC1CC(N1CCC(c3cc(F)c4nc(-c5ccc(S(C)(=O)=O)cc5)n(C5CC5)c4c3)CC1)C2 (single isomer, unassigned) [Example 117, 1-cyclopropyl-4-fluoro-6-(1-(8-isopropyl-8-azabicyclo[3.2.1]octan-3-yl)piperidin-4-yl)-2-(4-(methylsulfonyl)phenyl)-1H-benzo[d]imidazole]",> 50,71,,2.2,
"Cc1cc(C2CCN(C3CC4CCC(C3)N4C3CCC3)CC2)cc2c1nc(-c1ccc(S(C)(=O)=O)c(F)c1)n2C (single isomer, unassigned) [Example 124, 6-(1-(8-cyclobutyl-8-azabicyclo[3.2.1]octan-3-yl)piperidin-4-yl)-2-(3-fluoro-4-(methylsulfonyl)phenyl)-1,4-dimethyl-1H-benzo[d]imidazole]",> 50,580,577,3.1,
"Cc1cc(C2CCN(C3CC4CCC(C3)N4C3CCC3)CC2)cc2c1nc(-c1ccc(S(C)(=O)=O)cc1)n2C (single isomer, unassigned) [Example 152, 6-(1-(8-cyclobutyl-8-azabicyclo[3.2.1]octan-3-yl)piperidin-4-yl)-1,4-dimethyl-2-(4-(methylsulfonyl)phenyl)-1H-benzo[d]imidazole]",> 25,,84,14.7,84
